Values quoted from earlier work, collected in patent US20070281881A1, “Methods And Compositions Comprising Non-Peptide Small Molecules That Solubilize Beta Amyloid Peptide Fiber” (priority 2004, published 2007).

Experiments:
[1] = biological target: Aβ (Homo sapiens, UniProt P05067); settings: result in words, from cited studies
[2] = result in words, from cited studies

Sequence of Aβ (P05067 672-713 limits assumed): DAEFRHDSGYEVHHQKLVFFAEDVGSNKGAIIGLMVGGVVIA

crossing of the blood brain barrier [2]	SMILES	binding to Aβ and effect on Aβ aggregation [1]
easily crosses the blood brain barrier	COc1ccc2[nH]cc(CCNC(C)=O)c2c1 [Melatonin]	binds and slows down Aβ aggregation
–	CN1CCCC1c1cccnc1 (stereo not drawn) [nicotine]	binds and slows down Aβ aggregation
